≈ marks a conversion by molar mass, not a printed value.
Test: Thermodynamic aqueous solubility, shake-flask
Format: physicochemical
Settings: PBS pH 7.4, 24 h, 25° C., assay standards
Source text: In addition, chromatographic purity (%) was defined as the peak area of the principal peak relative to the total integrated peak area in the HPLC chromatogram of the calibration standard. A chromatogram of the calibration standard of each test compound, along with a UV/VIS spectrum with labeled absorbance maxima, was generated.

[1] = PBS (shake-flask), aqueous buffer, thermodynamic from solid

Row | SMILES | solubility at 24 h [1] | solubility at 24 h
1 | O=C1NC(=O)C(c2ccccc2)(c2ccccc2)N1 [Phenytoin] | 102 µM (≈ 25.7 µg/mL) | 
2 | CC(=O)N1CCN(c2ccc(OCC3COC(Cn4ccnc4)(c4ccc(Cl)cc4Cl)O3)cc2)CC1 (centres unmarked) [Ketoconazole] | 153 µM (≈ 81.2 µg/mL) | 
3 | CO[C@H]1/C=C/O[C@@]2(C)Oc3c(C)c(O)c4c(O)c(c(/C=N/N5CCN(C)CC5)c(O)c4c3C2=O)NC(=O)/C(C)=C\C=C\[C@H](C)[C@H](O)[C@@H](C)[C@@H](O)[C@@H](C)[C@H](OC(C)=O)[C@@H]1C [Rifampicin] | 200 µM (≈ 165 µg/mL) | 

Second part, the molecule after the results:

Row | solubility at 24 h [1] | solubility at 24 h | SMILES
4 | 193 µM (≈ 51.5 µg/mL) |  | COCCc1ccc(OCC(O)CNC(C)C)cc1 (centres unmarked) [Metoprolol]
5 |  | 7.0 µM (≈ 1.88 µg/mL) | CC/C(=C(/CC)c1ccc(O)cc1)c1ccc(O)cc1 [Diethylstilbesterol]
